Measured values from patent publication US12509734B2, “Systems and methods to assess microbiomes and treatments thereof” (priority 2013, dated 2025).

Test system: vaginal microbiota (PB-primer target groups)
Test: PB-qPCR of acute BV and post-tinidazole vaginal lavages (Tables 3A, 3B)
Format: in vivo, human
Conditions: for Post-Tinidazole PB-qPCR Cells/sample: post-tinidazole vaginal lavage
Procedure: DNA extraction. Bacteria were lysed from vaginal lavages by adding sodium hydroxide and sodium dodecyl sulfate to final concentrations of 133 mM and 10% respectively, followed by vigorous reciprocal shaking at room temperature for 30 m. This lysate was then extracted with phenol:chloroform:isoamyl alcohol (25:24:1) then chloroform. The DNA was precipitated with an equal volume of 100% isopropanol, washed once with 70% isopropanol, and dissolved in 100 μl TE (10 mM Tris pH 8, 1 mM EDTA). DNA was stored at −20° C. until further use. […] DNA was amplified from extracts of reference bacterial species as single colonies, using QUICKEXTRACT™ Plant DNA 144 Extraction Solution (Epicentre, Madison, WI), modified by heating at 65° C. for 30 m, 95° C. for 1 m.
PCR primers, blockers, and amplification. Standard PCR was performed on ROBOCYCLER™ Gradient 96 (Stratagene). Real-time PCR was performed using Cepheid SMARTCYCLER™ or LIGHTCYCLER® 480 II (Roche Applied Sciences) thermal cyclers. The reaction utilized individually optimized amounts of each primer, 250 μM dNTPs (Invitrogen), 20 mM Tris pH 8.3, 3 mM MgCl2, 50 mM KCl, and Taq DNA polymerase, 5 units from either GeneChoice or New England Biolabs, 2.5 units GenScript Green Taq, or 1 unit of glycerol-free Taq DNA polymerase from APEX (Genesee Scientific) per 100 μl reaction volume, including either 0.073×SYBR® Green I Nucleic Acid Stain (FMC Bio Products) or 0.25 μl of 15 μM SYTO9 (Invitrogen) for qPCR reactions.
Calculation of titers and percent compositions. Cp values from reactions in LIGHTCYCLER® 480 II Real-Time PCR System (Roche Applied Science) were converted to molecules by comparison to Cp values of a standard curve from the same run derived from four to eight 10-fold serial dilutions of an amplicon quantified using the QUANT-IT® assay (Invitrogen). Molecules per μl were converted to cells per 5 ml lavage, assuming an average of five ribosomal genes per cell and proportioned to the ratio of the volume of the lavage used in the DNA prep and its final volume.
If the titer of the sample was below the limit of detection for the PB assay, nested PCR on a 24-cycle amplicon from a longer broad-spectrum 16S amplicon was performed (Tables 3A-3D). If the nested PCR was negative, the titer of the original sample was assumed to be 0; if the nested PCR was positive, the titer was reported as below the concentration of most dilute but still positive sample in each specific run. Amplicons were sequenced to verify that targeted species were amplified. Mixed amplicons were cloned into pGEM-T™ easy (Promega) and approximately 10 of the resultant clones sequenced. Percentages were calculated by dividing the titer from each PB by the sum of the titers from all the PB primers.
For Tables 3A-3D, titers were determined by qPCR using standard curves and converted to approximate cells/sample as described herein. Primers BU4&BU6 were used alone for the 16S-C&S but the extended set (Table 1) was used for qPCR. Species were identified by Sanger sequencing of either uncloned amplicons, in cases where a single species was dominant for the target group, or by sequencing small numbers of E. coli clones derived from the amplicons if mixed. In silico performance was determined using the RDP website; Target hits is the number of database entries of “good” quality >1200 bp within the target grouping; Total hits is the total number of these hits in the RDP database; Specificity=target/total hits; Total target number=number of RDP entries in the target group; Target coverage=target hits/target number. Notes: uc=uncultured; n.d.=none detected; n.a.=not applicable; t=no subuniversal primer; *=detected by nested PCR only, reporting limit of detection; [ ]=identity; ˜=novel species, closest hit listed. […] 1 min and ended with 72° C. 5 min; ***=excludes ˜⅓ of Clostridium XI; **** performance not determined, showing forward primer only. […]

CCS(=O)(=O)CCn1c([N+](=O)[O-])cnc1C [tinidazole]
Composition of post-tinidazole sample (PB-qPCR, FIG. 5B): dominated by L. iners | Fold higher G. vaginalis in the BV sample compared to post-tinidazole (one patient, vaginal lavages): approximately 10^4 fold | Fold lower titer of L. iners in the acute BV sample compared to post-tinidazole (one patient, vaginal lavages): approximately 20 fold | Post-Tinidazole PB-qPCR Cells/sample (target Actinobacteridae): 5.7E+04 Cells/sample | Post-Tinidazole PB-qPCR Cells/sample (target Bacteroidaceae/uc Prevotellaceae): 4.7E+06 Cells/sample | Post-Tinidazole PB-qPCR Cells/sample (target Beta-Proteobacteria): 2.6E+04 Cells/sample | Post-Tinidazole PB-qPCR Cells/sample (target Broad-spectrum (BU4L/BU6R)): 1.4E+10 Cells/sample | Post-Tinidazole PB-qPCR Cells/sample (target Clostridiales Incertae Sedis XI): 0 Cells/sample | Post-Tinidazole PB-qPCR Cells/sample (target Clostridiales Incertae Sedis XII): 5.5E+03 Cells/sample | Post-Tinidazole PB-qPCR Cells/sample (target Coriobacteridae): 4.0E+04 Cells/sample | Post-Tinidazole PB-qPCR Cells/sample (target Cross-family Clostridia): 3.9E+03 Cells/sample | Post-Tinidazole PB-qPCR Cells/sample (target Enterobacteriales, Pasteurellales, Pseudomonadaceae): 2.9E+03 Cells/sample | Post-Tinidazole PB-qPCR Cells/sample (target Fusobacterium): 2.9E+02 Cells/sample | Post-Tinidazole PB-qPCR Cells/sample (target Lachnospiracea uc & incertae sedis, Clostridium IVa, Roseburia): 2.8E+05 Cells/sample | Post-Tinidazole PB-qPCR Cells/sample (target Lactobacillaceae): 8.4E+09 Cells/sample | Post-Tinidazole PB-qPCR Cells/sample (target Megasphaera/Dialister/Veillonella): 1.8E+03 Cells/sample | Post-Tinidazole PB-qPCR Cells/sample (target Mobiluncus): 0 Cells/sample | Post-Tinidazole PB-qPCR Cells/sample (target Mycoplasmatales): 8.3E+04 Cells/sample | Post-Tinidazole PB-qPCR Cells/sample (target Peptostreptococcaceae): 0 Cells/sample | Post-Tinidazole PB-qPCR Cells/sample (target Staphylococcus): 1.0E+05 Cells/sample | Post-Tinidazole PB-qPCR Cells/sample (target Streptococcus): 8.1E+05 Cells/sample | Post-Tinidazole PB-qPCR Cells/sample (target uc Clostridiales (BVAB2&3 subset)): 0 Cells/sample
